# Patent US9295682B2, “Adjuvant immunotherapy for the preventive, curative or palliative treatment of chronic systemic diseases such as cancer, of clinical manifestations associated with diseases like cachexia and correction of adverse effects of drugs such as immunosuppression, neutropenia and lymphopenia, comprising …” (priority 2009, dated 2016)
# Several values for one entry are separate records, joined by “and”; a condition that tells them apart may be missing. Identical values can stand only once.
# T1: hTLR3 (Homo sapiens, UniProt O15455)
# T1 construct: expressed in transfected cells; host or cells: HEK293 (293/hTLR3)
# T1 sequence (O15455 24-904): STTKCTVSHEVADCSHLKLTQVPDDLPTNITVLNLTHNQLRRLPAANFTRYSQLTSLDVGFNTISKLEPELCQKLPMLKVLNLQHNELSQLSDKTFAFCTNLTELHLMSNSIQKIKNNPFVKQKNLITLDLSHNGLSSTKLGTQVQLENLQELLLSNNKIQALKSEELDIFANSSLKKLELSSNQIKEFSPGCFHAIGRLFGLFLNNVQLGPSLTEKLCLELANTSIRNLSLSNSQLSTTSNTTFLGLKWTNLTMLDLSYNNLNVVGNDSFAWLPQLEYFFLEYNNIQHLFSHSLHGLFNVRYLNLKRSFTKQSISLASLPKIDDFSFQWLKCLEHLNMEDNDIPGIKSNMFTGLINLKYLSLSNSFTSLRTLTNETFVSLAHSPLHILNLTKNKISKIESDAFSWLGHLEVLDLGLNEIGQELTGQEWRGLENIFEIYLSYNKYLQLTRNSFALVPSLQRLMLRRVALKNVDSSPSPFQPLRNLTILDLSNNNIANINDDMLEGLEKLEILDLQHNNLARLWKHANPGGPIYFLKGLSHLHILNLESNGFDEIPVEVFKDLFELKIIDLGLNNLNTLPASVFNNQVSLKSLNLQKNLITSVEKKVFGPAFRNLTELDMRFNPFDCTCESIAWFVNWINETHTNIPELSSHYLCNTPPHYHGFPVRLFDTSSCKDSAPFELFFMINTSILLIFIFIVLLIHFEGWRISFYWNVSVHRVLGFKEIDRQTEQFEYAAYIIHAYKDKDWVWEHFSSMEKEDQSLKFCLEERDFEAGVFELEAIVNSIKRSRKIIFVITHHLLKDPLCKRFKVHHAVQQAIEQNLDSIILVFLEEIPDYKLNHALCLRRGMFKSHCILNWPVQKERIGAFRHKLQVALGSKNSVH
# T2: hTLR8 (Homo sapiens, UniProt Q9NR97)
# T2 construct: expressed in transfected cells; host or cells: HEK293 (293/hTLR8)
# T2 sequence (Q9NR97 27-1041): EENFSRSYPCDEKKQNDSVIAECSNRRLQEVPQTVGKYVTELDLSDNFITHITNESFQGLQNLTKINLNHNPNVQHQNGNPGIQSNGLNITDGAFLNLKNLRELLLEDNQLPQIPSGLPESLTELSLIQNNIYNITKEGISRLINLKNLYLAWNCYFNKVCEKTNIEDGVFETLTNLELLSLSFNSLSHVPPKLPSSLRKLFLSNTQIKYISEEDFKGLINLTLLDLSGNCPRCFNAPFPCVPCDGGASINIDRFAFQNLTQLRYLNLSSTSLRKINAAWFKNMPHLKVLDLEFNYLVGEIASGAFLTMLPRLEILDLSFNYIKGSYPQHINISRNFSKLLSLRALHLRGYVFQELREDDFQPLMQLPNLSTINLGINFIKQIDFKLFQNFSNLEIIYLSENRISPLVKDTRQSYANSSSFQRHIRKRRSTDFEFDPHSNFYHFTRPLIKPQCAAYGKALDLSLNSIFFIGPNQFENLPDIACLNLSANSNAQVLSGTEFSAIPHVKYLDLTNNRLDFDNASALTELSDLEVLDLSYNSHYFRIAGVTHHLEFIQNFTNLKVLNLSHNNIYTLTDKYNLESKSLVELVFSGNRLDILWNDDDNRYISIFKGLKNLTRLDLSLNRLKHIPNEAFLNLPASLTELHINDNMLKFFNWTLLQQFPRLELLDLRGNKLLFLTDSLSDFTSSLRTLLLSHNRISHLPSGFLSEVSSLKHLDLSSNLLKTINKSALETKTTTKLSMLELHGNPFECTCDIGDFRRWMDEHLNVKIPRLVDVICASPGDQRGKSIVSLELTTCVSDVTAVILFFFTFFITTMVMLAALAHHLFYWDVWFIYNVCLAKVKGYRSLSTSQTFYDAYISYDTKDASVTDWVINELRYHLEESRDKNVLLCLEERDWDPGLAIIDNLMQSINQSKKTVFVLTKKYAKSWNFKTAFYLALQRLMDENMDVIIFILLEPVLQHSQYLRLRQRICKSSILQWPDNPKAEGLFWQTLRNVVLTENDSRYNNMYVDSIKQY
# T3: hTLR7 (Homo sapiens, UniProt Q9NYK1)
# T3 construct: expressed in transfected cells; host or cells: HEK293 (293/hTLR7)
# T3 sequence (Q9NYK1 27-1049): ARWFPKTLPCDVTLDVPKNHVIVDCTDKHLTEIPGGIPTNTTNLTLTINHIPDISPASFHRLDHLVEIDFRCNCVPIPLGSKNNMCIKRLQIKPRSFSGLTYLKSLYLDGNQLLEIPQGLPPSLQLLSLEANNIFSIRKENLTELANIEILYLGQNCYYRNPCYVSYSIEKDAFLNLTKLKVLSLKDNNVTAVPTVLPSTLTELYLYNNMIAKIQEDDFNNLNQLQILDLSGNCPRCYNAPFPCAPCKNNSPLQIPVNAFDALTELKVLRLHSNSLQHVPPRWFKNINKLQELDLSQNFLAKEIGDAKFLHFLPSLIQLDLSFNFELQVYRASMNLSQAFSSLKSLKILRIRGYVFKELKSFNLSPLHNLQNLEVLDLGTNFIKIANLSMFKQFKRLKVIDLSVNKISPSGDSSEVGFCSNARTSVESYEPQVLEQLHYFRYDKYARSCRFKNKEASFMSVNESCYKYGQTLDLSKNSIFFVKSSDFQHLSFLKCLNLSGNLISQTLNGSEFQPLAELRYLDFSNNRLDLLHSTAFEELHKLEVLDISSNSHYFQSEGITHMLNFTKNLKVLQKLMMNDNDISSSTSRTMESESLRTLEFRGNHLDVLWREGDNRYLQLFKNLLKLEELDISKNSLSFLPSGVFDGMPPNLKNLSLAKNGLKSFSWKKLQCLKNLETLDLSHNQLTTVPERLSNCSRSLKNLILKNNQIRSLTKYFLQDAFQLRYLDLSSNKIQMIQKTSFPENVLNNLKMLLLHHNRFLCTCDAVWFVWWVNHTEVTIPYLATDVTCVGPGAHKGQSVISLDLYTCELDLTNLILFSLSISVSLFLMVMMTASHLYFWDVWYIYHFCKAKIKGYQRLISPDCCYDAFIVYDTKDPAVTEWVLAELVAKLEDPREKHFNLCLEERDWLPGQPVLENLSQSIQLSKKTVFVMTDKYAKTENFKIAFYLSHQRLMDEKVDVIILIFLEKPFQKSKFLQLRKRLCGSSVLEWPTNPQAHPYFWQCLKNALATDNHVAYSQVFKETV
# T4: hTLR9 (Homo sapiens, UniProt Q9NR96)
# T4 construct: expressed in transfected cells; host or cells: HEK293 (293/hTLR9)
# T4 sequence (Q9NR96 26-1032): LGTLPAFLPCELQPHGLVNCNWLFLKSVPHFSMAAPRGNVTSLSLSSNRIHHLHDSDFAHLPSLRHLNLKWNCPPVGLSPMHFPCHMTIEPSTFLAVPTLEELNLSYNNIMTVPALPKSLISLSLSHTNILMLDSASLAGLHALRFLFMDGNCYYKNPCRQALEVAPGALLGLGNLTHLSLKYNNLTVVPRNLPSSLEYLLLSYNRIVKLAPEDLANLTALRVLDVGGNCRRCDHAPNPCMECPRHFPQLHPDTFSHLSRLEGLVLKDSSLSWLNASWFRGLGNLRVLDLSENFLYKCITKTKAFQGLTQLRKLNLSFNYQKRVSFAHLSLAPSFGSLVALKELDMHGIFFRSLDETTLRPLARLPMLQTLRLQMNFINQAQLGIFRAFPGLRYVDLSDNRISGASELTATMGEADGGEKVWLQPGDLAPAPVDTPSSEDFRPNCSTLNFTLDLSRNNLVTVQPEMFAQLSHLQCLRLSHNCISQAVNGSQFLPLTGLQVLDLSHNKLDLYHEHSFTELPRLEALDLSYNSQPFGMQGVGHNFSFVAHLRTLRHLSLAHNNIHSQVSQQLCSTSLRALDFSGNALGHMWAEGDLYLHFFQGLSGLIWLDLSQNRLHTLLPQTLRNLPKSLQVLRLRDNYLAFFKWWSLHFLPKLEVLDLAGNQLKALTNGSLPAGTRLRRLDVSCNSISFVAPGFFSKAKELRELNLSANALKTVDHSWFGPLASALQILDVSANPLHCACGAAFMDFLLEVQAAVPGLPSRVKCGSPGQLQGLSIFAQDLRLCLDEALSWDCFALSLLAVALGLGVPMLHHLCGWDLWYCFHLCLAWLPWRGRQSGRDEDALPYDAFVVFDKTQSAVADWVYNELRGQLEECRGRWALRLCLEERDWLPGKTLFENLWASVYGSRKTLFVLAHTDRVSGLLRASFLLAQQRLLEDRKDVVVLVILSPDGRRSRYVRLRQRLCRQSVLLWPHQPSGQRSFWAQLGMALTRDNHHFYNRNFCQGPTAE
# B1: S. typhimurium flagellin: TLR5 control ligand (protein, UniProt P06179 2-495, looked up)
# Flagellin: AQVINTNSLSLLTQNNLNKSQSALGTAIERLSSGLRINSAKDDAAGQAIANRFTANIKGLTQASRNANDGISIAQTTEGALNEINNNLQRVRELAVQSANSTNSQSDLDSIQAEITQRLNEIDRVSGQTQFNGVKVLAQDNTLTIQVGANDGETIDIDLKQINSQTLGLDTLNVQQKYKVSDTAATVTGYADTTIALDNSTFKASATGLGGTDQKIDGDLKFDDTTGKYYAKVTVTGGTGKDGYYEVSVDKTNGEVTLAGGATSPLTGGLPATATEDVKNVQVANADLTEAKAALTAAGVTGTASVVKMSYTDNNGKTIDGGLAVKVGDDYYSATQNKDGSISINTTKYTADDGTSKTALNKLGGADGKTEVVSIGGKTYAASKAEGHNFKAQPDLAEAAATTTENPLQKIDAALAQVDTLRSDLGAVQNRFNSAITNLGNTVNNLTSARSRIEDSDYATEVSNMSRAQILQQAGTSVLAQANQVPQNVLSLLR
# Legend:
# NF-κB Control cells = assay: Toll-like receptor screening, NF-κB control cells; assay type: cell-based; settings: TNFα 100 ng/ml
# Description: (§1) Samples in three concentrations (0.5 μg/mL, 5 μg/mL, and 50 μg/mL) of the biological response modifier (proteic aggregate of ammonium and magnesium phospholinoleate-palmitoleate anhydride) were dissolved in dimethylsulfoxide (DMSO at 1%) at the concentration of 1% and incubated with 293 TLR cells (HEK293 cells) in microplates, in duplicate, for 20 hours.
# (§2) Standard compounds, that is, ligands known for TLR 3 to TLR9 in predetermined concentrations were also incubated in microplates with 293 TLR cells (HEK293 cells) for 20 hours.
# (§3) Subsequently, absorbance readings were taken of the microplates […] at 650 nm using a Beckman Coulter AD 340C Absorbance Detector device with three concentrations of the biological response modifier (proteic aggregate of ammonium and magnesium phospholinoleate-palmitoleate anhydride) incubated with the HEK293 cells and readings were also taken of the microplates incubated with the same cells and the control substances, for comparative assessment of the percentage of binding of the aforementioned compounds to toll-like receptors expressed in HEK293 cells.
# hTLR3 = target: T1, hTLR3; assay: Toll-like receptor binding/stimulation, HEK293 cells expressing hTLR3; assay type: cell-based; settings: Poly (I: C) 1 μg/mL
# Description: as §1, §2, §3
# hTLR8 = target: T2, hTLR8; assay: Toll-like receptor binding/stimulation, HEK293 cells expressing hTLR8; assay type: cell-based; settings: CL075 1 μg/mL
# Description: as §1, §2, §3
# metastatic melanoma = settings: high doses of interferon-alpha alone; cited from earlier work
# hTLR7 = target: T3, hTLR7; assay: Toll-like receptor binding/stimulation, HEK293 cells expressing hTLR7; assay type: cell-based; settings: CL097 1 μg/mL
# Description: as §1, §2, §3
# hTLR9 = target: T4, hTLR9; assay: Toll-like receptor binding/stimulation, HEK293 cells expressing hTLR9; assay type: cell-based; settings: CpG ODN 2006 1 μg/mL
# Description: as §1, §2, §3
# hTLR5 = hTLR5 (Homo sapiens, UniProt O60602); assay: Toll-like receptor binding/stimulation, HEK293 cells expressing hTLR5; assay type: cell-based; settings: S. typhimurium flagellin 100 ng/ml
# Sequence of hTLR5 (O60602 21-858): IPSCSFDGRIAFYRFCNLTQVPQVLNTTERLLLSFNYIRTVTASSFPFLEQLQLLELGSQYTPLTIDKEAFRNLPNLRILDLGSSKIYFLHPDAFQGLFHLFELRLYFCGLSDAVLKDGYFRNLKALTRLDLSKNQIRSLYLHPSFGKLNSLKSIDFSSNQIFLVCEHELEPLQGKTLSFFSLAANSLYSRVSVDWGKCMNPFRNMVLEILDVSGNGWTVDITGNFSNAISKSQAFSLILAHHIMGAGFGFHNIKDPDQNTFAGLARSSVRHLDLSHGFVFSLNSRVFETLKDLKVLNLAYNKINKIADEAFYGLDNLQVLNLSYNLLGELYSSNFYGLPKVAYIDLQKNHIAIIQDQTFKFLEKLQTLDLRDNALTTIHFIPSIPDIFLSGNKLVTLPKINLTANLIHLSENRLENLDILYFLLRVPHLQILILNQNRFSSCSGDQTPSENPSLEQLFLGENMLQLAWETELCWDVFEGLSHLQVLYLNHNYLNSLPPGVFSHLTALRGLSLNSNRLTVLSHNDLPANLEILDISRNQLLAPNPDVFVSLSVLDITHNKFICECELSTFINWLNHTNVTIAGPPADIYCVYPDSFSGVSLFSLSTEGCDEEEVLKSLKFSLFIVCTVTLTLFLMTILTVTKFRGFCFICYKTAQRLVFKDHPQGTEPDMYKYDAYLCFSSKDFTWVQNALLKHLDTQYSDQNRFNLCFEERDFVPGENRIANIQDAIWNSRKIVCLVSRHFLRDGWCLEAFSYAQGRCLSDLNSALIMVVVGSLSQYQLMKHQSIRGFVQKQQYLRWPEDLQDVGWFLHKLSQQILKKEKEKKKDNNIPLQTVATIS
# Description: Subsequently, absorbance readings were taken of the microplates by fluorescence at 650 nm using a Beckman Coulter AD 340C Absorbance Detector device with three concentrations of the biological response modifier (proteic aggregate of ammonium and magnesium phospholinoleate-palmitoleate anhydride) incubated with the HEK293 cells and readings were also taken of the microplates incubated with the same cells and the control substances, for comparative assessment of the percentage of binding of the aforementioned compounds to toll-like receptors expressed in HEK293 cells.
molecule,measurement,setting,value
TNFα,"OD (650 nm), Cells NF-κB Controls, Controls+","NF-κB Control cells; 20 h, screening 1 and 2",2.221 OD (650 nm) and 2.042 OD (650 nm)
same,"% ligands (% bindings), Cell NF-κB Controls, Controls",NF-κB Control cells; reference,100%
Poly (I: C),"OD (650 nm), 293/hTLR3 cells, Controls+","hTLR3; 20 h, screening 1 and 2",3.287 OD (650 nm) and 3.440 OD (650 nm)
same,"% ligands (% bindings), 293/hTLR3, Controls",hTLR3; reference,100%
CCCc1nc2c(N)nc3ccccc3c2s1 [CL075],"OD (650 nm), 293/hTLR8 cells, Controls+","hTLR8; 20 h, screening 1 and 2",3.313 OD (650 nm) and 3.338 OD (650 nm)
same,"% ligands (% bindings), 293/hTLR8, Controls",hTLR8; reference,100%
interferon-alpha,response rate,metastatic melanoma,around 20%
CCOCc1nc2c([nH]1)c(N)nc1ccccc12 [CL097],"OD (650 nm), 293/hTLR7 cells, Controls+","hTLR7; 20 h, screening 1 and 2",3.222 OD (650 nm) and 3.359 OD (650 nm)
same,"% ligands (% bindings), 293/hTLR7, Controls",hTLR7; reference,100%
CpG ODN 2006,"OD (650 nm), 293/hTLR9 cells, Controls+","hTLR9; 20 h, screening 1 and 2",2.582 OD (650 nm) and 2.519 OD (650 nm)
same,"% ligands (% bindings), 293/hTLR9, Controls",hTLR9; reference,100%
B1,"OD (650 nm), 293/hTLR5 cells, Controls+","hTLR5; 20 h, screening 1 and 2",3.662 OD (650 nm) and 3.798 OD (650 nm)
same,"% ligands (% bindings), 293/hTLR5, Controls",hTLR5; reference,100%
